Data reported in patent EP4745135A1 (Gluetacs Therapeutics (Shanghai) Co., Ltd., priority 2023, dated 2025).

How the values were obtained:
[1] = target: T1, human Cereblon WT GST-tagged protein (Homo sapiens, UniProt Q96SW2); experiment: CRBN-binding affinity, HTRF (CEREBLON BINDING kit); conditions: for IC50: CRBN binding, HTRF, 3 hours at room temperature, read-out: HTRF IC50; for inhibition at 0.5 µM: read-out: Inhibition Rate at 0.5 µM (%); for inhibition at 2 µM: read-out: Inhibition Rate at 2 µM (%)
T1 construct: purchased CISBIO 64BDCRBNPEH
T1 sequence (Q96SW2 whole entry): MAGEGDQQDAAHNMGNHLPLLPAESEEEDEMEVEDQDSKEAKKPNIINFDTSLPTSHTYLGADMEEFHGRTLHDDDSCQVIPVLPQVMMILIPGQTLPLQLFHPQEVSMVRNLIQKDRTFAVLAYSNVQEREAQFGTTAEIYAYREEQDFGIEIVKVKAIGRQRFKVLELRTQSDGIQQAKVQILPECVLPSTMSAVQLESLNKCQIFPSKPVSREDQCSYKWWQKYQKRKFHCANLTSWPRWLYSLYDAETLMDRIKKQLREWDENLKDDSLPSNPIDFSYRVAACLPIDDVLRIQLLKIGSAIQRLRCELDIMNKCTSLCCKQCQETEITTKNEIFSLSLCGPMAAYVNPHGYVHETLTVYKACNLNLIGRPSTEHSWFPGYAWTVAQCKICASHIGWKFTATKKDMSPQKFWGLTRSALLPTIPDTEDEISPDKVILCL

GSPT1 = experiment: Western blot, degradation of substrate protein in hPBMCs; assay type: cell-based, Human
IKZF1 = target: T2, IKZF1 (Homo sapiens, UniProt Q13422+Q96SW2); experiment: as above; assay type: cell-based
T2 construct: effects of the compounds of the present disclosure on the expression of target proteins in cells; endogenous in cells; host or cells: human PBMCs (Milecell Biotechnologies)
T2 sequence (Q13422 whole entry): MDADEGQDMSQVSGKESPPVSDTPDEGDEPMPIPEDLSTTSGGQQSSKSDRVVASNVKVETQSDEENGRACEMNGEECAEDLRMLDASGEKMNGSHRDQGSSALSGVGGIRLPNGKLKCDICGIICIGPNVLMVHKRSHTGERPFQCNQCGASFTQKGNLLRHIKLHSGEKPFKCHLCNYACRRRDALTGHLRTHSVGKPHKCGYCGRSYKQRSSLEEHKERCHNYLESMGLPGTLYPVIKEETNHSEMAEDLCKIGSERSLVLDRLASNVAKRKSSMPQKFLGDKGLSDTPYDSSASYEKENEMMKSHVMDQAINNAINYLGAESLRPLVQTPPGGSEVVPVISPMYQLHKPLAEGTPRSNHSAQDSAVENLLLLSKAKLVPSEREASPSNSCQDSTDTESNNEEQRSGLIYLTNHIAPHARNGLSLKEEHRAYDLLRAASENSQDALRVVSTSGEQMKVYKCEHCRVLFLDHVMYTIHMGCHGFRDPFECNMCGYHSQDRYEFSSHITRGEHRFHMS
T2 sequence (Q96SW2 whole entry): as the sequence (Q96SW2 whole entry) above
T2 sequence (Q16531 whole entry partner): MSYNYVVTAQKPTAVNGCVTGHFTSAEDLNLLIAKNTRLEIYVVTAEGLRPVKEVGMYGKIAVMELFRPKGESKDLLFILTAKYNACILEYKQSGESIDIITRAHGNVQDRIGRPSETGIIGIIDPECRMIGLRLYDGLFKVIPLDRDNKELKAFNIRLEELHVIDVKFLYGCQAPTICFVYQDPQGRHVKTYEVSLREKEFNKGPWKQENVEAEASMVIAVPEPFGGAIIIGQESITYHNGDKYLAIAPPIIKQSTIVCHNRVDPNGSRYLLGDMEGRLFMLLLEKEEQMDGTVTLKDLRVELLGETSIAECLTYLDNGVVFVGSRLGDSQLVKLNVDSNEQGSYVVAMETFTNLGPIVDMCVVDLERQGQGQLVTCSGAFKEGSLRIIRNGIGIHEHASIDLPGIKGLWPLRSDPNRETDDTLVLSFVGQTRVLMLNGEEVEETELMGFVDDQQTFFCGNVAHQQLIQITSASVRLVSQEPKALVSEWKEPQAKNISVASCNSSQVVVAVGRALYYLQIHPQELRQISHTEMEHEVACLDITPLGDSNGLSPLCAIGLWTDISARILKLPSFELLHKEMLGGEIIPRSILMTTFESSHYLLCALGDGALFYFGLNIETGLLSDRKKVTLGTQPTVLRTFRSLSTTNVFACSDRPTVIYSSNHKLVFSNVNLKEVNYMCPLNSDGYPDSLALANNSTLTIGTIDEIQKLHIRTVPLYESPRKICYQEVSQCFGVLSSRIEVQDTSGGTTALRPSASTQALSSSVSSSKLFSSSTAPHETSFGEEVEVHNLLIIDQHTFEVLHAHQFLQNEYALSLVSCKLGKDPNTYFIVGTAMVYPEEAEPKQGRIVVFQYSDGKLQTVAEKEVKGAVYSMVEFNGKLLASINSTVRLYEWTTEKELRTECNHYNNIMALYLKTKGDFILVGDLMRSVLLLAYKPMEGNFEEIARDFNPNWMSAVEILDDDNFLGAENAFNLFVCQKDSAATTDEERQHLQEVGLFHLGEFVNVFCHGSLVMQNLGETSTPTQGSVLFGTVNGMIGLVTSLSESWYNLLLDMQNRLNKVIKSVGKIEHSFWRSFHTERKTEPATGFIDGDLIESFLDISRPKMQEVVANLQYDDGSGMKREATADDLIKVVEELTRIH
Experimental: (§1) Conventional Western blot assay was performed to evaluate the effects of the compounds of the present disclosure on the expression of target proteins in cells. • (1) Cell Seeding and Protein Harvesting: Human peripheral blood mononuclear cells (hPBMCs) at a density of 1×10^6 cells/mL were thawed according to the PBMC Recovery Protocol (Milecell Biotechnologies Inc, Shanghai). […] After 24 hours of compounds treatment, cells were harvested and lysed in RIPA protein lysate containing protease inhibitors on ice for 30 min, followed by centrifugation. The supernatant was aspirated as the extracted total cell protein. The protein concentration of the supernatant was determined using the conventional BCA (Bicinchoninic Acid) assay. • (2) To the collected supernatant, 5X SDS sample loading buffer was added, followed by denaturation at 95°C for 5 minutes. The denatured samples were then separated by SDS-PAGE electrophoresis on a polyacrylamide gel, transferred onto a nitrocellulose membrane (0.45 µm NC membrane), blocked with blocking buffer at room temperature for 1 hour, and subjected to antibody incubation and development procedures according to the antibody manufacturer's instructions (Cell Signaling Technology Company).
(§2) Half-Maximal Degradation Concentration value (the drug concentration required for degrading proteins by 50%, abbreviated as DC50) reads method: comparing the grayscale values of Western blot bands from drug-treated samples with those from blank DMSO-treated controls, and identifying the drug concentration range at which the grayscale value is half that of the DMSO-treated control bands.
(§3) DC50 values can be calculated using ImageJ software to measure grayscale values of Western blot bands from drug-treated samples. The concentration-response curve is fitted to estimate the drug concentration corresponding to half the grayscale value.
(§4) Target protein remaining (%) refers to the percentage of target protein remaining in cells after treatment with protein degrader compounds.
(§5) Calculation method for target protein remaining (%): Use ImageJ software to measure grayscale values of Western blot bands from drug (protein degrader)-treated samples. The grayscale value of drug-treated bands is divided by that of internal control protein bands, and the resulting quotient is normalized to obtain the relative percentage of remaining target protein after protein degrader treatment.
(§6) Target protein degradation rate (%) = 1−target protein remaining (%). [formula]

CK1α = target: T3, CK1α (Homo sapiens, UniProt P48729+Q96SW2); experiment: as above; assay type: cell-based
T3 construct: effects of the compounds of the present disclosure on the expression of target proteins in cells; endogenous in cells; host or cells: human PBMCs (Milecell Biotechnologies)
T3 sequence (P48729 whole entry): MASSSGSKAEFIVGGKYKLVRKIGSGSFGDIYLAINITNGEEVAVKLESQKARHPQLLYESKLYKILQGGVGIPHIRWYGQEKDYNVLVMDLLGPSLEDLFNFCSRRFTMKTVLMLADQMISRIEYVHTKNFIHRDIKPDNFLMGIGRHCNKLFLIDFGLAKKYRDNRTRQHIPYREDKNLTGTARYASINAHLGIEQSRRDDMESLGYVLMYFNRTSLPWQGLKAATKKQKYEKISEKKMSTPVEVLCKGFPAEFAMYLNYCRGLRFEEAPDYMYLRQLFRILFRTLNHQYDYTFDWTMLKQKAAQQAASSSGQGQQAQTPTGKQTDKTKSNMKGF
T3 sequence (Q96SW2 whole entry): as the sequence (Q96SW2 whole entry) above
T3 sequence (Q16531 whole entry partner): as the sequence (Q16531 whole entry partner) above
Experimental: as §1, §2, §3, §4, §5, §6

IKZF2 = target: T4, IKZF2 (Homo sapiens, UniProt Q96SW2+Q9UKS7); experiment: as above; assay type: cell-based
T4 construct: effects of the compounds of the present disclosure on the expression of target proteins in cells; endogenous in cells; host or cells: human PBMCs (Milecell Biotechnologies)
T4 sequence (Q9UKS7 whole entry): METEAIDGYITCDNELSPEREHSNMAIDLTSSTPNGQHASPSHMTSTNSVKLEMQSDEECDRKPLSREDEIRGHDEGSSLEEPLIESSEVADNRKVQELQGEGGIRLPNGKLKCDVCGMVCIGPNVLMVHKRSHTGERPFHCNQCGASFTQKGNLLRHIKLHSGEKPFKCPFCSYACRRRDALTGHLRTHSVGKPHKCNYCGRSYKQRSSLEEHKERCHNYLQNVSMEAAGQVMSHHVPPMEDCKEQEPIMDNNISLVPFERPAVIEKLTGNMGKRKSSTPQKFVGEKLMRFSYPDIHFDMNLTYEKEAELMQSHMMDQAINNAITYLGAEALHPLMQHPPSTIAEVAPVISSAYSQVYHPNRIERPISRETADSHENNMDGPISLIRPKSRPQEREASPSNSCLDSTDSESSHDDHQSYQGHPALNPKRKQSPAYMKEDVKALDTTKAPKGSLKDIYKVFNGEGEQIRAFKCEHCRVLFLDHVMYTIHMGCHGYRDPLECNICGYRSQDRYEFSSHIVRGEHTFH
T4 sequence (Q96SW2 whole entry): as the sequence (Q96SW2 whole entry) above
T4 sequence (Q16531 whole entry partner): as the sequence (Q16531 whole entry partner) above
Experimental: as §1, §2, §3, §4, §5, §6

WEE1 = target: T5, WEE1 (Homo sapiens, UniProt P30291+Q96SW2); experiment: as above; assay type: cell-based
T5 construct: effects of the compounds of the present disclosure on the expression of target proteins in cells; endogenous in cells; host or cells: human PBMCs (Milecell Biotechnologies)
T5 sequence (P30291 whole entry): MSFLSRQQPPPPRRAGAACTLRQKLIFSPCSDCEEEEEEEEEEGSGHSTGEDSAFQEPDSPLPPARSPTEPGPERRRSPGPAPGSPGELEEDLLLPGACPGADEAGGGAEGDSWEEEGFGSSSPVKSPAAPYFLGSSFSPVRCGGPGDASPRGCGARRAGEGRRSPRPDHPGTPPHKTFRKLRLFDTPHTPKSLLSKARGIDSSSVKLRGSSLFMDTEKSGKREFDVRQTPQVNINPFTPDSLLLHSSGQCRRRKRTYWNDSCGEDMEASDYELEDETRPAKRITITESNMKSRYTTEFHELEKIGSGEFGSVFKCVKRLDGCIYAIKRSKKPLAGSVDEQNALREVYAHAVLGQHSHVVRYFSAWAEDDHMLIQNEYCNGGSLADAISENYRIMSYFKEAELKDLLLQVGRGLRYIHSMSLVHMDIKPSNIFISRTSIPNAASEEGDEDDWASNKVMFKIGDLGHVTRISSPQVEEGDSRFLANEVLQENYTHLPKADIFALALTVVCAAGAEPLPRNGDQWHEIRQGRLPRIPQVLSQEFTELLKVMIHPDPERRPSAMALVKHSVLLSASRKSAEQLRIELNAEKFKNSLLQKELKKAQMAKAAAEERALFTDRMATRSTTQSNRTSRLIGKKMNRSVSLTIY
T5 sequence (Q96SW2 whole entry): as the sequence (Q96SW2 whole entry) above
T5 sequence (Q16531 whole entry partner): as the sequence (Q16531 whole entry partner) above
Experimental: as §1, §2, §3, §4, §5, §6

IKZF3 = target: T6, IKZF3 (Homo sapiens, UniProt Q96SW2+Q9UKT9); experiment: as above; assay type: cell-based
T6 construct: effects of the compounds of the present disclosure on the expression of target proteins in cells; endogenous in cells; host or cells: human PBMCs (Milecell Biotechnologies)
T6 sequence (Q9UKT9 whole entry): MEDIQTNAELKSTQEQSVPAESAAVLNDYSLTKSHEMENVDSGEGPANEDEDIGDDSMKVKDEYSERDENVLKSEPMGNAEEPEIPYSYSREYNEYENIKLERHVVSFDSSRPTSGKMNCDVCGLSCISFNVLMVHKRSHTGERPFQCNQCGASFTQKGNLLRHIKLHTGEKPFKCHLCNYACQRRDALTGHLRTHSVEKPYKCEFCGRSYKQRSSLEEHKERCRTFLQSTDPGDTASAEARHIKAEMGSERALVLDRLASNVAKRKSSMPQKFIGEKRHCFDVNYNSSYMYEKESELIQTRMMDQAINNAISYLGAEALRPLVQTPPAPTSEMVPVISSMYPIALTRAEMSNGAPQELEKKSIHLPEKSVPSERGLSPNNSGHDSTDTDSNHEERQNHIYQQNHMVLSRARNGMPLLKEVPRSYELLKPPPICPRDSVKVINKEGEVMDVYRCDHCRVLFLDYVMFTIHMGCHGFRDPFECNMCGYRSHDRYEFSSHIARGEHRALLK
T6 sequence (Q96SW2 whole entry): as the sequence (Q96SW2 whole entry) above
T6 sequence (Q16531 whole entry partner): as the sequence (Q16531 whole entry partner) above
Experimental: as §1, §2, §3, §4, §5, §6

[2] = Western blot, 24 hours of compound treatment, compounds tested at 50 nM and 500 nM (concentration for the table not stated)
[3] = 24 hours treatment, compounds at 50 nM and 500 nM (concentration behind the class not stated)

| SMILES | IC50 [1] [nM] | GSPT1 substrate protein remaining % (GSPT1; [2]) | IKZF 1 substrate protein remaining % (IKZF1; [2]) | CK1α substrate protein remaining % (CK1α; [2]) | IKZF2 substrate protein remaining % (IKZF2; [2]) | Wee1 substrate protein remaining % (WEE1; [2]) | IKZF3 substrate protein remaining % (IKZF3; [2]) | GSPT1 substrate protein remaining % (GSPT1; [3]) | IKZF 1 substrate protein remaining % (IKZF1; [3]) | CK1α substrate protein remaining % (CK1α; [3]) | IKZF2 substrate protein remaining % (IKZF2; [3]) | Wee1 substrate protein remaining % (WEE1; [3]) | IKZF3 substrate protein remaining % (IKZF3; [3]) | inhibition at 0.5 µM [1] [%] | inhibition at 2 µM [1] [%] |
| --- | --- | --- | --- | --- | --- | --- | --- | --- | --- | --- | --- | --- | --- | --- | --- |
| Cc1cscc1N1CCN(Cc2ccc3c(c2)CN(C2CCC(=O)NC2=O)C3=S)CC1 (centres unmarked) [GT-05113, 3-(5-((4-(4-methylthiophen-3-yl)piperazin-1-yl)methyl)-1-thioxoisoindolin-2-yl)piperidine-2,6-dione] | < 100 | A (0% ≤ substrate protein remaining % ≤ 80%) | A (0% ≤ substrate protein remaining % ≤ 80%) | B (80%< substrate protein remaining %≤ 100%) | B (80%< substrate protein remaining %≤ 100%) | B (80%< substrate protein remaining %≤ 100%) | A (0% ≤ substrate protein remaining % ≤ 80%) | – | – | – | – | – | – | – | – |
| O=C1CCC(N2Cc3cc(CN4CCC(c5ccco5)CC4)ccc3C2=S)C(=O)N1 (centres unmarked) [GT-05148, 3-(5-((4-(furan-2-yl)piperidin-1-yl)methyl)-1-thioxoisoindolin-2-yl)piperidine-2,6-dione] | 100 to 500 | A (0% ≤ substrate protein remaining % ≤ 80%) | B (80%< substrate protein remaining %≤ 100%) | B (80%< substrate protein remaining %≤ 100%) | B (80%< substrate protein remaining %≤ 100%) | B (80%< substrate protein remaining %≤ 100%) | B (80%< substrate protein remaining %≤ 100%) | – | – | – | – | – | – | – | – |
| CC1(C)CCC(CN2CCN(Cc3ccc4c(c3)CN(C3CCC(=O)NC3=O)C4=S)CC2)=C(c2ccc(Cl)cc2)C1 (centres unmarked) [GT-05151, 3-(5-((4-((4'-chloro-5,5-dimethyl-3,4,5,6-tetrahydro-[1,1'-biphenyl]-2-yl)methyl)piperazin-1-yl)methyl)-1-thioxoisoindolin-2-yl)piperidine-2,6-dione] | 500 to 1000 | A (0% ≤ substrate protein remaining % ≤ 80%) | A (0% ≤ substrate protein remaining % ≤ 80%) | B (80%< substrate protein remaining %≤ 100%) | A (0% ≤ substrate protein remaining % ≤ 80%) | A (0% ≤ substrate protein remaining % ≤ 80%) | A (0% ≤ substrate protein remaining % ≤ 80%) | – | – | – | – | – | – | – | – |
| O=C1CCC(N2Cc3cc(CN4CC=C(c5cccc6cnccc56)CC4)ccc3C2=S)C(=O)N1 (centres unmarked) [GT-05246, 3-(5-((4-(isoquinolin-5-yl)-3,6-dihydropyridin-1(2H)-yl)methyl)-1-thioxoisoindolin-2-yl)piperidine-2,6-dione] | 100 to 500 | A (0% ≤ substrate protein remaining % ≤ 80%) | B (80%< substrate protein remaining %≤ 100%) | B (80%< substrate protein remaining %≤ 100%) | B (80%< substrate protein remaining %≤ 100%) | A (0% ≤ substrate protein remaining % ≤ 80%) | B (80%< substrate protein remaining %≤ 100%) | – | – | – | – | – | – | – | – |
| O=C1CCC(N2Cc3ccccc3C2=S)C(=O)N1 (centres unmarked) [GT-05563, 3-(1-thioxoisoindolin-2-yl)piperidine-2,6-dione] | < 100 | – | – | – | – | – | – | B (80%< substrate protein remaining %≤ 100%) | A (0% ≤ substrate protein remaining % ≤ 80%) | B (80%< substrate protein remaining %≤ 100%) | A (0% ≤ substrate protein remaining % ≤ 80%) | A (0% ≤ substrate protein remaining % ≤ 80%) | A (0% ≤ substrate protein remaining % ≤ 80%) | – | – |
| O=C1CCC(N2Cc3ccc(CO)cc3C2=S)C(=O)N1 (centres unmarked) [GT-05566, 3-(6-(hydroxymethyl)-1-thioxoisoindolin-2-yl)piperidine-2,6-dione] | 100 to 500 | – | – | – | – | – | – | B (80%< substrate protein remaining %≤ 100%) | A (0% ≤ substrate protein remaining % ≤ 80%) | B (80%< substrate protein remaining %≤ 100%) | A (0% ≤ substrate protein remaining % ≤ 80%) | A (0% ≤ substrate protein remaining % ≤ 80%) | A (0% ≤ substrate protein remaining % ≤ 80%) | – | – |
| O=C1CCC(N2Cc3cc(CO)ccc3C2=S)C(=O)N1 (centres unmarked) [GT-06977, 3-(5-(hydroxymethyl)-1-thioxoisoindolin-2-yl)piperidine-2,6-dione] | < 100 | – | – | – | – | – | – | B (80%< substrate protein remaining %≤ 100%) | B (80%< substrate protein remaining %≤ 100%) | B (80%< substrate protein remaining %≤ 100%) | B (80%< substrate protein remaining %≤ 100%) | A (0% ≤ substrate protein remaining % ≤ 80%) | A (0% ≤ substrate protein remaining % ≤ 80%) | – | – |
| O=C1CCC(N2Cc3cc(CN4CCN(C(c5ccccc5)c5cccnc5)CC4)ccc3C2=S)C(=O)N1 (centres unmarked) [GT-07732, 3-(5-((4-(phenyl(pyridin-3-yl)methyl)piperazin-1-yl)methyl)-1-thioxoisoindolin-2-yl)piperidine-2,6-dione] | – | A (0% ≤ substrate protein remaining % ≤ 80%) | B (80%< substrate protein remaining %≤ 100%) | B (80%< substrate protein remaining %≤ 100%) | B (80%< substrate protein remaining %≤ 100%) | A (0% ≤ substrate protein remaining % ≤ 80%) | A (0% ≤ substrate protein remaining % ≤ 80%) | – | – | – | – | – | – | 53 to 60 | 80 to 100 |
| O=C1CCC(N2Cc3cc(CN4CCN(C(c5ccccc5)c5ccncc5)CC4)ccc3C2=S)C(=O)N1 (centres unmarked) [GT-07733, 3-(5-((4-(phenyl(pyridin-4-yl)methyl)piperazin-1-yl)methyl)-1-thioxoisoindolin-2-yl)piperidine-2,6-dione] | – | A (0% ≤ substrate protein remaining % ≤ 80%) | B (80%< substrate protein remaining %≤ 100%) | B (80%< substrate protein remaining %≤ 100%) | B (80%< substrate protein remaining %≤ 100%) | A (0% ≤ substrate protein remaining % ≤ 80%) | A (0% ≤ substrate protein remaining % ≤ 80%) | – | – | – | – | – | – | 60 to 80 | 80 to 100 |
